In PubChem BioAssay (NCI) one finds TGI data, which are given here for 8 compounds.

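All cell lines were grown in 96-well plates and treated with compound for 48 hours. TGI marks complete inhibition of growth.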

Test systems include CAKI-1 renal; OVCAR-8 ovarian; TK-10 renal; NCI-H460 lung; 786-0 renal; OVCAR-3 ovarian; MDA-MB-435; MDA-N; SK-MEL-5 melanoma; SNB-75 CNS; K-562 leukemia; BT-549 breast; HCT-15 colon; SNB-19 CNS; KM12 colon; MALME-3M melanoma; A498 renal; M14 melanoma; NCI-H23 lung; MCF7 breast.
Holding throughout (experiment): DTP human tumour cell line panel, 48 h

For `COC(=O)C1=C(O)CCCC(CCC(C)=O)=C1`, the TGI in the experiment on CAKI-1 renal was greater than 100 µM; in the experiment on OVCAR-8 ovarian, greater than 100 µM; in the experiment with TK-10 renal it was greater than 100 µM; in the experiment on NCI-H460 lung, greater than 100 µM; with 786-0 renal it was 77.3 µM; with OVCAR-3 ovarian, greater than 100 µM. The TGI with MDA-MB-435, in the experiment with MDA-N, in the experiment with SK-MEL-5 melanoma, in the experiment with SNB-75 CNS, with K-562 leukemia and with BT-549 breast was greater than 100 µM in each case. Further, the TGI in the experiment on HCT-15 colon, in the experiment on SNB-19 CNS, in the experiment with KM12 colon, in the experiment on MALME-3M melanoma, with A498 renal and with M14 melanoma was greater than 100 µM in each case. For the same compound, the TGI with NCI-H23 lung is greater than 100 µM.
Consider `CC1(C)CC(=O)c2c(nc(SSc3nc4c(c(-c5ccc(Br)cc5)c3C#N)C(=O)CC(C)(C)C4)c(C#N)c2-c2ccc(Br)cc2)C1`, for which the TGI in the experiment on CAKI-1 renal, in the experiment with OVCAR-8 ovarian, in the experiment with TK-10 renal, in the experiment on NCI-H460 lung, in the experiment with 786-0 renal and in the experiment with OVCAR-3 ovarian was greater than 10 µM in each case. In addition, the TGI in the experiment with MDA-N, in the experiment on SK-MEL-5 melanoma, with SNB-75 CNS, in the experiment on K-562 leukemia, in the experiment with BT-549 breast and in the experiment on HCT-15 colon was greater than 10 µM each time. The TGI with SNB-19 CNS, in the experiment with KM12 colon, in the experiment with MALME-3M melanoma, in the experiment with A498 renal, in the experiment on M14 melanoma and with NCI-H23 lung was greater than 10 µM in each case. The same compound displayed a TGI in the experiment with MCF7 breast greater than 10 µM.
As to `O=C1CCCCC(=O)Nc2ccccc2N1`, the TGI in the experiment with CAKI-1 renal, in the experiment on OVCAR-8 ovarian, with TK-10 renal, with NCI-H460 lung, in the experiment with 786-0 renal and in the experiment on OVCAR-3 ovarian was greater than 100 µM in each case. The TGI in the experiment on MDA-MB-435, in the experiment on MDA-N, in the experiment with SK-MEL-5 melanoma, in the experiment with K-562 leukemia, in the experiment with BT-549 breast and with HCT-15 colon was greater than 100 µM in each case. In addition, the TGI in the experiment on SNB-19 CNS, in the experiment with KM12 colon, with MALME-3M melanoma, with A498 renal, in the experiment with M14 melanoma and with NCI-H23 lung was greater than 100 µM throughout.
Consider `NC(=S)N/N=c1\cc(C(=O)Nc2ccc([N+](=O)[O-])cc2[N+](=O)[O-])oc2ccccc12`, for which the TGI with CAKI-1 renal, with OVCAR-8 ovarian, in the experiment with TK-10 renal, with NCI-H460 lung, in the experiment on 786-0 renal and with OVCAR-3 ovarian was greater than 100 µM throughout. The TGI in the experiment on MDA-MB-435, in the experiment with MDA-N, with SK-MEL-5 melanoma, with SNB-75 CNS, in the experiment with BT-549 breast and in the experiment with HCT-15 colon was greater than 100 µM throughout. Also, the TGI with SNB-19 CNS, in the experiment with KM12 colon, with M14 melanoma, in the experiment with NCI-H23 lung and in the experiment on MCF7 breast was greater than 100 µM in each case.
With `COc1ccc(N=Nc2ccc3oc(=O)c(C(=O)Nc4ccc(Cl)cc4)cc3c2)cc1`, the TGI in the experiment on CAKI-1 renal, in the experiment on OVCAR-8 ovarian, with TK-10 renal, in the experiment on NCI-H460 lung, in the experiment on 786-0 renal and with OVCAR-3 ovarian was greater than 10 µM each time. The TGI in the experiment with MDA-MB-435, in the experiment on MDA-N, in the experiment with SK-MEL-5 melanoma, in the experiment on SNB-75 CNS, in the experiment with HCT-15 colon and in the experiment with KM12 colon was greater than 10 µM throughout. For the same compound, the TGI in the experiment with MALME-3M melanoma, in the experiment with A498 renal, with M14 melanoma, in the experiment with NCI-H23 lung and in the experiment on MCF7 breast was greater than 10 µM in each case.
As for `Cn1c(=O)cc(NCCc2ccccc2)[nH]c1=O`, the TGI was greater than 100 µM in the experiment with CAKI-1 renal; greater than 100 µM in the experiment on OVCAR-8 ovarian; greater than 100 µM with TK-10 renal; greater than 100 µM in the experiment with NCI-H460 lung; greater than 100 µM in the experiment on 786-0 renal; 36.6 µM in the experiment on OVCAR-3 ovarian. Also, the TGI with MDA-N is 20.5 µM; with SK-MEL-5 melanoma, greater than 100 µM; with SNB-75 CNS, greater than 100 µM; with K-562 leukemia, greater than 100 µM; in the experiment on BT-549 breast it was greater than 100 µM; with HCT-15 colon, greater than 100 µM. Also, the TGI in the experiment on SNB-19 CNS, in the experiment on KM12 colon, in the experiment with MALME-3M melanoma, in the experiment on A498 renal, with M14 melanoma and with NCI-H23 lung was greater than 100 µM each time. Moreover, the TGI in the experiment on MCF7 breast is greater than 100 µM.
As for `CC1(C)N=C(C(=O)c2ccccc2)N(O)C1(O)c1ccccc1` (stereo not given), the TGI in the experiment with CAKI-1 renal, in the experiment on OVCAR-8 ovarian, in the experiment on TK-10 renal, in the experiment with NCI-H460 lung, in the experiment on 786-0 renal and in the experiment with OVCAR-3 ovarian was greater than 100 µM each time. The TGI in the experiment on MDA-MB-435, in the experiment with MDA-N, in the experiment with SK-MEL-5 melanoma, in the experiment with SNB-75 CNS, in the experiment with K-562 leukemia and in the experiment with HCT-15 colon was greater than 100 µM in each case. Moreover, the TGI with SNB-19 CNS, in the experiment with KM12 colon, in the experiment with MALME-3M melanoma, in the experiment on M14 melanoma, in the experiment on NCI-H23 lung and with MCF7 breast was greater than 100 µM in each case.
`COc1ccc2c(c1)CCC1=C/C(=N\NC(N)=O)CCC12C` (stereo not given): the TGI with CAKI-1 renal, in the experiment on OVCAR-8 ovarian, in the experiment on TK-10 renal, with 786-0 renal, with OVCAR-3 ovarian and in the experiment with MDA-MB-435 was greater than 10 µM in each case. For the same compound, the TGI in the experiment on MDA-N, with SK-MEL-5 melanoma, in the experiment on SNB-75 CNS, in the experiment on K-562 leukemia, in the experiment with BT-549 breast and in the experiment with HCT-15 colon was greater than 10 µM each time. Besides, the TGI in the experiment on SNB-19 CNS, in the experiment on KM12 colon, with MALME-3M melanoma, in the experiment with M14 melanoma, in the experiment on NCI-H23 lung and in the experiment with MCF7 breast was greater than 10 µM in each case.
